Where a name gives a salt, the structure may show the parent alone.
Molecular target: notum carboxyesterase enzyme (Homo sapiens (Human), UniProt Q6P988)
Assay: Biochemical Notum Enzymatic Activity Assay (OPTS substrate, fluorescence)
Settings: 2 μM OPTS solution, 2.38 nM notum enzyme solution, 1 hour incubation at room temperature, fluorescence ex 485 nm / em 520 nm; n≥2
Description: Plate layout and measured fluorescence values were input into Dotmatics Studies data management tool.

Chain of notum carboxyesterase enzyme (Q6P988 20-496): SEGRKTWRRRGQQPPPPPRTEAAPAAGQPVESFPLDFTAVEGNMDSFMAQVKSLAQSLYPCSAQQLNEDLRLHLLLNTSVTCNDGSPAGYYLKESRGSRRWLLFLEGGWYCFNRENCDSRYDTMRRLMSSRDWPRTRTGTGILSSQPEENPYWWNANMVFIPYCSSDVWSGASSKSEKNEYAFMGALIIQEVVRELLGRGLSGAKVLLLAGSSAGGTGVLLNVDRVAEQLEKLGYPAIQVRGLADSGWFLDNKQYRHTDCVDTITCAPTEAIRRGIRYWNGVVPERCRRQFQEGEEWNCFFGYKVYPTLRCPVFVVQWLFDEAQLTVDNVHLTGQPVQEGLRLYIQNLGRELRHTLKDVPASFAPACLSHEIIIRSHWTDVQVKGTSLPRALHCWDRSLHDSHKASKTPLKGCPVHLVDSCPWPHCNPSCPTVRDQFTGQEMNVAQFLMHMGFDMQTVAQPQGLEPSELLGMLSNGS

O=C(O)c1cc(-c2ccc(Cl)cc2)c[nH]1 [Compound 160, 4-(4-chlorophenyl)-1H-pyrrole-2-carboxylic acid] and OCc1cc(-c2ccc(Cl)cc2)[nH]n1 [Compound 171, [5-(4-chlorophenyl)-1H-pyrazol-3-yl]methanol] cannot be ordered by IC50: 21000 nM for the first, greater than 10000 nM for the second.

OCc1cn(Cc2ccc(Cl)cc2)nn1 [Compound 162, (1-(4-chlorobenzyl)-1H-1,2,3-triazol-4-yl)methanol] and OCc1cn(-c2ccccc2F)nn1 [Compound 273, (1-(2-Fluorophenyl)-1H-1,2,3-triazol-4-yl)methanol] are within 1.5-fold of each other in IC50: 68500 nM for the first, 63600 nM for the second.

First: NCc1cc(-c2ccc(Cl)cc2)no1 [Compound 167, (3-(4-chlorophenyl)isoxazol-5-yl)methanamine]
Second: Nc1nnc(-c2ccc(Cl)cc2)s1 [Compound 168, 5-(4-chlorophenyl)-1,3,4-thiadiazol-2-amine]
The IC50 of the first is 8.5-fold higher: 70200 nM for the first, 8290 nM for the second.

Compared with FC(F)(F)c1cc(-n2ccnn2)ccc1Cl [Compound 175, 1-[4-chloro-3-(trifluoromethyl)phenyl]triazole], FC(F)(F)c1cc(-n2cnnn2)ccc1Cl [Compound 215, 1-[4-chloro-3-(trifluoromethyl)phenyl]tetrazole] is 4.6-fold higher in IC50: 99.3 nM for the first, 457 nM for the second.

Compared with COc1nnc(-c2cccc(Cl)c2)o1 [Compound 176, 2-(3-chlorophenyl)-5-methoxy-1,3,4-oxadiazole], COc1nnc(-c2ccc(Cl)c(C(F)(F)F)c2Cl)o1 [Compound 243, 2-(2,4-dichloro-3-(trifluoromethyl)phenyl)-5-methoxy-1,3,4-oxadiazole] is 920-fold lower in IC50: 5360 nM for the first, 5.8 nM for the second. The second is the more potent here.

Going from CN1CC(C)(C)c2cc(-c3nnc(O)o3)ccc21 [Compound 180, 5-(1,3,3-trimethylindolin-5-yl)-1,3,4-oxadiazol-2-ol] to Oc1nnc(-c2ccc(C3CC3)nc2)o1 [Compound 209, 5-(6-cyclopropyl-3-pyridyl)-1,3,4-oxadiazol-2-ol], the IC50 rises from 34.4 nM to 43500 nM (1300-fold). The first is the more potent here.

First: FC(F)(F)c1ccc(-c2nnco2)cc1C1COC1 [Compound 181, 2-[3-(oxetan-3-yl)-4-(trifluoromethyl)phenyl]-1,3,4-oxadiazole]
Second: FC(F)(F)c1cc(-c2nnco2)ccc1C1COC1 [Compound 284, 2-(4-(oxetan-3-yl)-3-(trifluoromethyl)phenyl)-1,3,4-oxadiazole]
The IC50 of the first is 16-fold lower: 257 nM for the first, 4050 nM for the second.

Compared with Cc1nnnn1-c1ccc(Cl)c(C(F)(F)F)c1 [Compound 182, 1-[4-chloro-3-(trifluoromethyl)phenyl]-5-methyl-tetrazole], OCCc1cn(-c2ccc(Cl)c(C(F)(F)F)c2)nn1 [Compound 303, 2-[1-[4-chloro-3-(trifluoromethyl)phenyl]triazol-4-yl]ethanol] is 7.9-fold lower in IC50: 1170 nM for the first, 149 nM for the second.

First: FC(F)(F)c1ccc(-c2nnc(S)o2)cc1C1CC1 [Compound 187, 5-[3-cyclopropyl-4-(trifluoromethyl)phenyl]-1,3,4-oxadiazole-2-thiol]
Second: Cc1nnc(-c2ccc(C3CC3)c(C(F)(F)F)c2)o1 [Compound 190, 2-[4-cyclopropyl-3-(trifluoromethyl)phenyl]-5-methyl-1,3,4-oxadiazole]
The IC50 of the first is 4.8-fold higher: 426 nM for the first, 88.7 nM for the second. The second is the more potent here.

Compared with FC(F)(F)c1cc(-c2nnco2)cc(C2COC2)c1 [Compound 188, 2-[3-(oxetan-3-yl)-5-(trifluoromethyl)phenyl]-1,3,4-oxadiazole], Oc1nnc(-c2cc(C3CC3)cc(C(F)(F)F)c2)o1 [Compound 211, 5-[3-cyclopropyl-5-(trifluoromethyl)phenyl]-1,3,4-oxadiazol-2-ol] is 57-fold lower in IC50: 24700 nM for the first, 433 nM for the second. The second is the more potent here.

Going from Cc1cc(C)cc(-n2cnnn2)c1 [Compound 194, 1-(3,5-dimethylphenyl)tetrazole] to Clc1ccc(-n2cnnn2)cc1Cl [Compound 214, 1-(3,4-dichlorophenyl)tetrazole], the IC50 falls from 3220 nM to 1560 nM (2.1-fold). The second is the more potent here.

Oc1nnc(-c2cccc(C(F)(F)F)n2)o1 [Compound 206, 5-[6-(trifluoromethyl)-2-pyridyl]-1,3,4-oxadiazol-2-ol] and FC(F)(F)c1cccc(-c2nnco2)n1 [Compound 221, 2-[6-(trifluoromethyl)-2-pyridyl]-1,3,4-oxadiazole] cannot be ordered by IC50: greater than 23100 nM for the first, 82500 nM for the second.

Compared with FC(F)(F)c1cc(-c2nnn[nH]2)ccc1Cl [Compound 212, 5-[4-chloro-3-(trifluoromethyl)phenyl]-1H-tetrazole], OCc1nnc(-c2ccc(Cl)c(C(F)(F)F)c2)o1 [Compound 296, (5-(4-chloro-3-(trifluoromethyl)phenyl)-1,3,4-oxadiazol-2-yl)methanol] is 150-fold lower in IC50: 21000 nM for the first, 140 nM for the second.

Compared with FC(F)(F)c1cccc(-n2cnnn2)c1 [Compound 213, 1-[3-(trifluoromethyl)phenyl]tetrazole], OCc1cn(-c2cccc(C(F)(F)F)c2)nn1 [Compound 275, (1-(3-(trifluoromethyl)phenyl)-1H-1,2,3-triazol-4-yl)methanol] is 2.2-fold lower in IC50: 4870 nM for the first, 2230 nM for the second. The second is the more potent here.

Clc1ccc(-n2cnnn2)cc1 [Compound 216, 1-(4-chlorophenyl)tetrazole] and CC(C)c1ccc(-n2cnnn2)cc1 [Compound 217, 1-(4-isopropylphenyl)tetrazole] are within 1.5-fold of each other in IC50: 26900 nM for the first, 21400 nM for the second.

First: FC(F)(F)c1cc(-c2nnco2)ccn1 [Compound 222, 2-[2-(trifluoromethyl)-4-pyridyl]-1,3,4-oxadiazole]
Second: c1nnc(-c2ccc(C3CC3)nc2)o1 [Compound 226, 2-(6-cyclopropyl-3-pyridyl)-1,3,4-oxadiazole]
The IC50 of the first is 5.2-fold lower: 8050 nM for the first, 42200 nM for the second. The first is the more potent here.

First: Cn1nc(-c2ccc(Cl)cc2)oc1=O [Compound 229, 5-(4-chlorophenyl)-3-methyl-1,3,4-oxadiazol-2(3H)-one]
Second: Cn1nc(-c2ccc(Cl)c(C(F)(F)F)c2Cl)oc1=O [Compound 245, 5-(2,4-dichloro-3-(trifluoromethyl)phenyl)-3-methyl-1,3,4-oxadiazol-2(3H)-one]
The IC50 of the first is 390-fold higher: 26100 nM for the first, 67 nM for the second. The second is the more potent here.

First: O=c1cc(-c2ccccc2)cc[nH]1 [Compound 236, 4-phenylpyridin-2(1H)-one]
Second: O=c1cccc(-c2ccccc2)[nH]1 [Compound 237, 6-phenylpyridin-2(1H)-one]
The IC50 of the first is 3.5-fold lower: 14100 nM for the first, 49600 nM for the second.

[2H]C([2H])([2H])Oc1nnc(-c2ccc(Cl)c(C(F)(F)F)c2Cl)o1 [Compound 241, 2-(2,4-dichloro-3-(trifluoromethyl)phenyl)-5-(methoxy-d3)-1,3,4-oxadiazole] and CCOc1nnc(-c2ccc(Cl)c(C(F)(F)F)c2Cl)o1 [Compound 242, 2-(2,4-dichloro-3-(trifluoromethyl)phenyl)-5-ethoxy-1,3,4-oxadiazole] are within 1.5-fold of each other in IC50: 3.6 nM for the first, 4.3 nM for the second.

First: N#CCn1nc(-c2ccc(Cl)c(C(F)(F)F)c2Cl)oc1=O [Compound 244, 2-(5-(2,4-dichloro-3-(trifluoromethyl)phenyl)-2-oxo-1,3,4-oxadiazol-3(2H)-yl)acetonitrile]
Second: Nc1nnc(-c2ccc(Cl)c(C(F)(F)F)c2Cl)o1 [Compound 248, 5-[2,4-dichloro-3-(trifluoromethyl)phenyl]-1,3,4-oxadiazol-2-amine]
The IC50 of the first is 35-fold higher: 411 nM for the first, 11.9 nM for the second. The second is the more potent here.

Compared with N#CNc1nnc(-c2ccc(Cl)c(C(F)(F)F)c2Cl)o1 [Compound 246, N-(5-(2,4-dichloro-3-(trifluoromethyl)phenyl)-1,3,4-oxadiazol-2-yl)cyanamide, ammonia salt], CNc1nnc(-c2ccc(Cl)c(C(F)(F)F)c2Cl)o1 [Compound 249, 5-(2,4-dichloro-3-(trifluoromethyl)phenyl)-N-methyl-1,3,4-oxadiazol-2-amine] is 4.4-fold higher in IC50: 7.3 nM for the first, 31.9 nM for the second.

Going from CN(C)c1nnc(-c2ccc(Cl)c(C(F)(F)F)c2Cl)o1 [Compound 247, 5-(2,4-dichloro-3-(trifluoromethyl)phenyl)-N,N-dimethyl-1,3,4-oxadiazol-2-amine] to Cc1nnc(-c2ccc(Cl)c(C(F)(F)F)c2Cl)o1 [Compound 299, 2-(2,4-dichloro-3-(trifluoromethyl)phenyl)-5-methyl-1,3,4-oxadiazole], the IC50 falls from 439 nM to 27 nM (16-fold). The second is the more potent here.

First: OCc1cn(-c2ccc(Cl)c(OC(F)(F)F)c2)nn1 [Compound 270, (1-(4-chloro-3-(trifluoromethoxy)phenyl)-1H-1,2,3-triazol-4-yl)methanol]
Second: OCCCc1cn(-c2ccc(Cl)c(C(F)(F)F)c2)nn1 [Compound 302, 3-[1-[4-chloro-3-(trifluoromethyl)phenyl]triazol-4-yl]propan-1-ol]
The IC50 of the first is 11-fold lower: 697 nM for the first, 7510 nM for the second.

First: OCc1cn(-c2ccc(C(F)(F)F)cc2)nn1 [Compound 271, (1-(4-(trifluoromethyl)phenyl)-1H-1,2,3-triazol-4-yl)methanol]
Second: OCc1cn(-c2ccc(Cl)c(C(F)(F)F)c2Cl)nn1 [Compound 277, [1-[2,4-dichloro-3-(trifluoromethyl)phenyl]triazol-4-yl]methanol]
The IC50 of the first is 910-fold higher: 8700 nM for the first, 9.6 nM for the second.

Compared with OCc1cn(-c2ccc(Cl)c(C3CC3)c2)nn1 [Compound 276, (1-(4-chloro-3-cyclopropylphenyl)-1H-1,2,3-triazol-4-yl)methanol], Cc1cn(-c2ccc(Cl)c(C(F)(F)F)c2Cl)nn1 [Compound 301, 1-(2,4-dichloro-3-(trifluoromethyl)phenyl)-4-methyl-1H-1,2,3-triazole] is 9.8-fold lower in IC50: 1060 nM for the first, 108 nM for the second.

Compared with FC(F)(F)c1cc(-n2ccnn2)ccc1N1CCCC1 [Compound 286, 1-(4-(pyrrolidin-1-yl)-3-(trifluoromethyl)phenyl)-1H-1,2,3-triazole], FC1CN(c2cc(-n3ccnn3)ccc2C(F)(F)F)C1 [Compound 288, 1-(3-(3-fluoroazetidin-1-yl)-4-(trifluoromethyl)phenyl)-1H-1,2,3-triazole] is 3.5-fold lower in IC50: 862 nM for the first, 248 nM for the second. The second is the more potent here.

First: FC(F)(F)c1c(Cl)ccc(-n2cnnn2)c1Cl [Compound 298, 1-(2,4-dichloro-3-(trifluoromethyl)phenyl)-1H-tetrazole]
Second: FC(F)(F)c1c(Cl)ccc(-n2cnnc2)c1Cl [Compound 300, 4-(2,4-dichloro-3-(trifluoromethyl)phenyl)-4H-1,2,4-triazole]
The IC50 of the first is 9.6-fold lower: 136 nM for the first, 1310 nM for the second. The first is the more potent here.

O=C(O)c1cn(-c2ccc(Cl)c(C(F)(F)F)c2Cl)nn1 [Compound 304, 1-[2,4-dichloro-3-(trifluoromethyl)phenyl]triazole-4-carboxylic acid] was tested, and the IC50 was 30.3 nM.

Source: patent US11634391B2, “Compounds which are inhibitors of Notum” (UCL BUSINESS LTD, priority 2018, dated 2023)
